Assay results published in patent US20160367622A1, “AGONISTS OF GUANYLATE CYCLASE USEFUL FOR THE TREATMENT OF OPIOID INDUCED DYSFUNCTIONS” (priority 2013, published 2016).
Entries after “also recorded” stand apart in the source; their conditions may differ. Where two headings read alike, the source gives them in different places. Positions of bridges follow the written chain, without caps; N, C: chain ends. Non-standard residues stand in square brackets, D forms with d. Residues, ends and D or L forms follow the SMILES beside them.

What was measured:
[1] = randomized 4-week study in OIC: SP-333 plasma levels; format: in vivo, human; settings: for level at 0.5 h / level at 1 h: human, plasma, 6 mg, SP-333: 6 mg, read-out: SP-333 concentration; for level at 0.5 h: time 30; for level at 1 h: time 60
Description: To assess the safety and tolerability of SP-333. To evaluate the pharmacodynamic effects of SP-333. To evaluate the pharmacokinetic properties of SP-333.

[2] = tested on: female Sprague-Dawley rats; assay: morphine-induced delay in rat GI transit (charcoal meal); format: in vivo; settings: 2.5 mg/kg morphine IP
Experimental: Animals: All study procedures were conducted under a study outline approved by the Institutional Animal Care and Use Committee of MB Research Labs (Spinnerstown, Pa.) or Lampire Biological Laboratories (Pipersville, Pa.). Seven to eight week old female Sprague-Dawley rats [Crl:CD(SD)], weighing between ˜180-210 grams, were obtained from Charles River Laboratories and allowed to acclimate for a week. Animals were maintained on a 12 hour light-dark cycle. For intestinal tissue collection and evaluation of GI transit, rats were fasted for at least 18 hours before the experiment, with free access to water.
The ability of opioids to delay GI transit in rats was tested by either administering 0 (vehicle) 0.25, 1 and 2.5 mg/kg of morphine or 0 (vehicle), 0.25, 2.5 and 5 mg/kg of methadone (1.5 ml/kg dose volume) by IP injection. Water served as vehicle control. Ten minutes later, a 2 mL charcoal meal consisting of 10% activated charcoal (Sigma-Aldrich, St. Louis, Mo.) and 10% gum Arabic (Sigma-Aldrich, St. Louis, Mo.) in water was administered via oral gavage. Rats were euthanized 10 min after the charcoal meal via IP injection of 150 mg/kg Beuthanasia-D solution (sodium pentobarbital, 390 mg/mL). The small intestine was removed and the total length from the pyloric sphincter to the ileocecal junction was recorded, as well as the distance traveled by the leading edge of the charcoal. Intestinal transit was determined by calculating the ratio (expressed as a percentage) of the distance between the pyloric sphincter and the leading edge of the charcoal to the distance between the pyloric sphincter and the ileocecal junction.
To evaluate the ability of SP-333 to reverse morphine induced delayed GI transit, animals were administered 2.5 mg/kg of morphine by IP injection followed immediately by oral gavage of 0 (vehicle), 0.5, 2.5, 5 and 50 mg/kg of SP-333 (1.5 ml/kg dose volume). Water served as vehicle control. Charcoal meal was administered ten minutes later and animals were euthanized ten minutes after the charcoal meal and intestinal transit was calculated as described above.

[3] = tested on: patients with symptoms of OIC treated for non-malignant chronic pain with opioid therapy; assay: randomized 4-week placebo-controlled dose-ranging study in OIC: efficacy; format: in vivo, human; settings: for Week 4 change from baseline in SBMs, LS Mean (SE) / Week 4 change from baseline in SBMs, Mean (SD): observed cases, mITT population
Description: A Randomized, 4-Week, Double-Blind, Placebo-Controlled, Dose-Ranging Study to Assess the Safety and Efficacy of Sp-333 for the Treatment of Opioid-Induced Constipation (OIC) in Patients with Non-Malignant Chronic Pain Receiving Opioid Therapy
To evaluate the clinical efficacy of SP-333 compared with placebo, in patients with symptoms of OIC who have been treated for non-malignant chronic pain with opioid therapy.
The primary efficacy endpoint was to determine the mean change from baseline in the number of […] (SBMs) during Week 4 of the Treatment Period. Safety was assessed by analysis of the frequency of treatment-emergent adverse events (TEAEs), adverse events leading to withdrawal, and serious adverse events (SAEs).

T84 cells = assay: cyclic GMP and cyclic AMP production in T84 cells; format: cell-based, human; settings: 0.01, 0.1, 1, or 10 μM SP-333
Experimental: FIG. 3A-B is a series of graphs showing that SP-333 stimulates cyclic GMP, but not cyclic AMP production in T84 cells. Cells were treated with either control, IBMX, SP-333 ([…]), forskolin (FSK) or FSK+IBMX.
The results are depicted in FIG. 3A-B. T84 cells were treated with either control, IBMX, forskolin (FSK), or 0.01, 0.1, 1, or 10 μM SP-333, and the production of cGMP or cAMP measured (pmoles/well). CPT-cGMP and CPT-cAMP both stimulate Isc across T84 cell monolayers.

[4] = 30 and/or 60 minute time points

## CC(C)C[C@@H]1NC(=O)[C@H](CCC(=O)O)NC(=O)[C@@H](NC(=O)[C@H](CCC(=O)O)NC(=O)[C@H](CC(=O)O)NC(=O)[C@H](N)CC(N)=O)CSSC[C@@H]2NC(=O)[C@H](C)NC(=O)[C@H](C(C)C)NC(=O)[C@H](CC(N)=O)NC(=O)[C@H](C(C)C)NC(=O)[C@H](CSSC[C@@H](C(=O)N[C@H](CC(C)C)C(=O)O)NC(=O)CNC(=O)[C@H]([C@@H](C)O)NC2=O)NC1=O [SP-333, dAsn^1-Asp^2-Glu^3-Cys^4-Glu^5-Leu^6-Cys^7-Val^8-Asn^9-Val^10-Ala^11-Cys^12-Thr^13-Gly^14-Cys^15-dLeu^16] (H-[dN]DECELCVNVACTGC[dL]-OH; disulfide 4-12, 7-15)
[1]; [4]
  maximum plasma level value observed: 2.71 ng/mL
  number of patients in whom SP-333 plasma levels were observed: 4 patients
[1]; subject 006-004, visit week 1
  level at 0.5 h: 2.71 ng/mL
  level at 1 h: 1.77 ng/mL
[1]; subject 007-013, visit week 1
  level at 0.5 h: 1.38 ng/mL
[1]; subject 026-016, visit week 4
  level at 0.5 h: 1.88 ng/mL
  level at 1 h: 1.5 ng/mL
[1]; subject 047-002, visit week 4
  level at 0.5 h: 1.21 ng/mL
[2]; then SP-333 0.5 mg/kg oral gavage
  GI transit in morphine-treated rats: 27%
[2]; then SP-333 2.5 mg/kg oral gavage
  GI transit in morphine-treated rats: 37%
[2]; then SP-333 5 mg/kg oral gavage
  GI transit in morphine-treated rats: 46%
[2]; then SP-333 50 mg/kg oral gavage
  GI transit in morphine-treated rats: 48%
[3]; 3 mg and 6 mg doses
  primary endpoint (mean change from baseline in SBMs during Week 4): statistically significant improvement
[3]; SP-333 1 mg
  Week 4 change from baseline in SBMs, Difference from Placebo: 0.613 SBMs/week
  Week 4 change from baseline in SBMs, LS Mean (SE): 2.436 (0.3800) SBMs/week
  Week 4 change from baseline in SBMs, Mean (SD): 2.429 (2.7363) SBMs/week
[3]; SP-333 3 mg
  Week 4 change from baseline in SBMs, Difference from Placebo: 1.405 SBMs/week
  Week 4 change from baseline in SBMs, LS Mean (SE): 3.227 (0.3858) SBMs/week
  Week 4 change from baseline in SBMs, Mean (SD): 3.210 (3.8524) SBMs/week
[3]; SP-333 6 mg
  Week 4 change from baseline in SBMs, Difference from Placebo: 1.528 SBMs/week
  Week 4 change from baseline in SBMs, LS Mean (SE): 3.351 (0.3919) SBMs/week
  Week 4 change from baseline in SBMs, Mean (SD): 3.379 (3.1424) SBMs/week
T84 cells
  cAMP production: not cAMP synthesis; also recorded: does not result in an increase of cAMP production
  cGMP production: stimulates cGMP synthesis; also recorded: concentration dependent increase in cGMP levels
